For test [1], the system named is mushroom tyrosinase (Sigma T3824). Kind of test: Mushroom Tyrosinase Inhibition Assay. It is filed as biochemical. The conditions noted are these: 10 μM compound, 300 μM L-Tyrosine, 84 units/mL enzyme, pH 6.5, 15 min room temperature. The protocol:
10 μM compound, 300 μM L-Tyrosine, and 84 units/mL of mushroom tyrosinase (Sigma T3824) were combined into 0.05 M potassium monophosphate buffer at pH=6.5, and incubated for 15 min at room temperature. Absorbance was recorded at 490 nm. % tyrosinase inhibition was calculated as follows: (AbsDMSO−Abscmpd)/AbsDMSO×100. The assay was performed for various compounds described herein, as well as for control compounds 4-ethyl resorcinol (4ER), 4-isopropylresorcinol (4IPR), 4-hexylresorcinol (4HR), 4-cyclohexylresorcinol (4CHR), 5-methylresorcinol (5MR), kojic acid (KA), and hydroquinone (HQ), structures of which are shown below.

In test [2] the test system is human neonatal epidermal melanocytes (HEMn-DP) / HaCaT cells co-culture. Description: Melanocyte-HaCaT Co-Culture Assay. It is filed as cell-based. Conditions: 10 μM concentration, 72 h, corrected for viability (Calcein-AM). The protocol: Darkly pigmented human neonatal epidermal melanocytes (HEMn-DP, Invitrogen) were grown in Medium 254 with HMGS-2 supplement and P/S at 37° C. and 5% CO2. HaCaT cells were grown in DMEM, 10% FBS, P/S at 37° C., 5% CO2. Co-culture was conducted in 50% melanocyte media+50% keratinocyte media (EpiLife with EDGS, P/S). Cells were plated in the co-culture media at 40K (HaCaT) and 30K (HEMn-DP) per well in a 24-well plate. After 24 h of incubation at 37° C. and 5% CO2, media was changed to M153 (MCDB153 Sigma M7403 with NaHCO3 pH to 7.1, 2 mM Tyrosine, 10 nM NDP-aMSH, 3 ng/mL bFGF, 2.8 ug/mL Hydrocortisone, 10 ug/mL Insulin, 10 ug/mL Transferrin, and P/S), treated with compound, and incubated for 72 h at 37° C. and 5% CO2. After measuring cellular viability with Calcein-AM (RFU Ex/Em=488/525 nm), cells were lysed at 1 h at 65° C. with 1N NaOH+10% DMSO. Absorbance of cleared lysate was measured at 405 nm and 660 nm. % melanin was calculated as follows: ((Abs405DMSO−Abs660DMSO)/CalceinDMSO)−(Abs405comp−Abs660comp)/Calceincomp))/(Abs405DMSO−Abs660DMSO)/CalceinDMSO×100. At 10 μM concentration, % cellular melanin was 42% in the presence of compound 4,5CHMR.

For `Cc1cc(O)cc(O)c1Cc1ccccc1` [4,5BnMR, 4-benzyl-5-methylbenzene-1,3-diol], in test [1], the “Mushroom Tyrosinase (% remaining enzyme activity) % TYR Activity” value is 97%.
Still for that read-out and setting: in the case of `Oc1cc(O)c(Cc2ccccc2)c(C(F)(F)F)c1` [4,5BnTFMR, 2-Benzyl-1,5-dihydroxy-3-trifluoromethyl-benzene] it was 93%; in that of `Oc1cc(O)c(C2CCCCC2)c(F)c1` [4,5CHFR, 4-cyclohexyl-5-fluorobenzene-1,3-diol], 1%.
Take `Cc1cc(O)cc(O)c1C1CCCCC1` [4,5CHMR, 4-cyclohexyl-5-methylbenzene-1,3-diol]: in test [1], the “Mushroom Tyrosinase (% remaining enzyme activity) % TYR Activity” value stood at 22%. In addition, in test [2], the “% cellular melanin” value was 42%.
On to `Oc1cc(O)c(C2CCCCC2)c(C(F)(F)F)c1` [4,5CHTFMR], for which, in test [1], the “Mushroom Tyrosinase (% remaining enzyme activity) % TYR Activity” value worked out at 100%.
With `Cc1cc(O)cc(O)c1C1CCCC1` [4,5CPMR, 4-cyclopentyl-5-methylbenzene-1,3-diol], the “Mushroom Tyrosinase (% remaining enzyme activity) % TYR Activity” value in test [1] was 71%.
The same measure, in the same setting: to `Cc1cc(O)cc(O)c1C1CC1` [4,5CPrMR, 4-cyclopropyl-5-methylbenzene-1,3-diol] belongs 30%; to `Oc1cc(O)c(C2CCCCC2)c(F)c1` [4,5EFR, 4-cyclohexyl-5-fluorobenzene-1,3-diol], 3%; to `CCc1c(C)cc(O)cc1O` [4,5EMR, 4-ethyl-5-methylbenzene-1,3-diol], 93%.
Still for that read-out and setting: to `CCc1c(O)cc(O)cc1C(F)(F)F` [4,5ETFMR, 2-Ethyl-1,5-dihydroxy-3-trifluoromethyl-benzene] belongs 102%.
Still for that read-out and setting: in the case of `CCCCCCc1c(C)cc(O)cc1O` [4,5HMR, 4-hexyl-5-methylbenzene-1,3-diol] it was 10%; in that of `Cc1cc(O)cc(O)c1C(C)C` [4,5IPMR, 4-isopropyl-5-methylbenzene-1,3-diol], 108%.
As for `Cc1cc(O)cc(O)c1CC1CCCC1` [4,5MCPMR, 4-cyclopentylmethyl-5-methylbenzene-1,3-diol], in test [1], the “Mushroom Tyrosinase (% remaining enzyme activity) % TYR Activity” value is 32%.
On the same count and under the same terms, to `Cc1cc(O)cc(O)c1C(C)c1ccccc1` (stereo not drawn) [4,5PEMR, 4-(1-phenylethyl)-5-methylbenzene-1,3-diol] belongs 105%; to `Cc1cc(O)cc(O)c1CC(F)(F)F` [4,5TFEMR, 4-(2,2,2-trifluoroethyl)-5-methylbenzene-1,3-diol], 103%; to `CCC(C)c1c(C)cc(O)cc1O` (stereo not drawn) [4,5sBMR, 4-sec-butyl-5-methylbenzene-1,3-diol], 100%.
With `Oc1ccc(C2CCCCC2)c(O)c1` [Compound 4CHR, 4-cyclohexylresorcinol, reference compound], the “Mushroom Tyrosinase (% remaining enzyme activity) % TYR Activity” value in test [1] worked out at 0%.
Take `CCc1ccc(O)cc1O` [Compound 4ER, 4-ethyl resorcinol, reference compound]: the “Mushroom Tyrosinase (% remaining enzyme activity) % TYR Activity” value in test [1] worked out at 2%.
With `CCCCCCc1ccc(O)cc1O` [Compound 4HR, 4-hexylresorcinol, reference compound], the “Mushroom Tyrosinase (% remaining enzyme activity) % TYR Activity” value in test [1] was 1%.
Same read-out and setting: to `CC(C)c1ccc(O)cc1O` [Compound 4IPR, 4-isopropylresorcinol, reference compound] belongs 1%; to `Cc1cc(O)cc(O)c1` [Compound 5MR, 5-methylresorcinol, reference compound], 100%.
On the same count and under the same terms, in the case of `Oc1ccc(O)cc1` [Hydroquinone, hydroquinone, reference compound] it was 100%.
The same measure, in the same setting: in the case of `O=c1cc(CO)occ1O` [Kojic Acid, kojic acid, reference compound] it was 84%.

The record behind these values is patent publication US20140256830A1, “RESORCINOL COMPOUNDS FOR DERMATOLOGICAL USE” (Ampere Life Sciences, Inc., priority 2013, published 2014).
